Source: patent publication US11014912B2, “Cyanopyrrolidine derivatives with activity as inhibitors of USP30” (MISSION THERAPEUTICS LIMITED, priority 2016, dated 2021)

Each molecule was assayed against USP30 (Homo sapiens (Human), UniProt Q70CQ3) (assay: USP30 biochemical IC50 assay). Conditions: fluorescence polarisation, TAMRA labelled peptide linked to ubiquitin substrate; enzyme and compound incubated 30 min at room temp; read after 2 h; read-out: IC50 range.
Method: USP30 Biochemical IC50 Assay
Dilution plates were prepared at 21 times the final concentration (2100 μM for a final concentration of 100 μM) in 50% DMSO in a 96-well polypropylene V-bottom plate (Greiner #651201). A typical 8-point dilution series would be 100, 30, 10, 3, 1, 0.3, 0.1, 0.03 μM final. Reactions were performed in duplicate in black 384 well plates (small volume, Greiner 784076) in a final reaction volume of 21 μl. Either 1 μl of 50% DMSO or diluted compound was added to the plate. USP30 was diluted in reaction buffer (40 mM Tris, pH 7.5, 0.005% Tween 20, 0.5 mg/ml BSA, 5 mM beta-mercaptoethanol) to the equivalent of 0.05 μl/well and 10 μl of diluted USP30 was added to the compound. Enzyme and compound were incubated for 30 min at room temp. Reactions were initiated by the addition of 50 nM of TAMRA labelled peptide linked to ubiquitin via an iso-peptide bond as fluorescence polarisation substrate. Reactions were read immediately after addition of substrate and following a 2 h incubation at room temperature. Readings were performed on a Pherastar Plus (BMG Labtech). A Excitation 540 nm; A Emission 590 nm.

Sequence of USP30 (Q70CQ3 57-517): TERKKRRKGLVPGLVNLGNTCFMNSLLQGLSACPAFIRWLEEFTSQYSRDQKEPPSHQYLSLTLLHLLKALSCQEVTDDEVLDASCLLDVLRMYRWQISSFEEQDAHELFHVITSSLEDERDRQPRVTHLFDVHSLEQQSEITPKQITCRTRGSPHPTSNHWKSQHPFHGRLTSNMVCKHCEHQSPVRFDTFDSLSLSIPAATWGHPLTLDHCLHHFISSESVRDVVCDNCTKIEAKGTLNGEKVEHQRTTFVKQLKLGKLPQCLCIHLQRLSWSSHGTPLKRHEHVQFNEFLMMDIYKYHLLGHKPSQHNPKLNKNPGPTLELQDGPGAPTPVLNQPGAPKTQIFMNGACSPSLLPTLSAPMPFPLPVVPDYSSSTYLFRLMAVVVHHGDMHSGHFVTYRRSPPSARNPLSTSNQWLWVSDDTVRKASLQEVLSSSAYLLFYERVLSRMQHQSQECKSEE

Row | IC50 [nM] | Structure (SMILES)
1 | 100 to 1000 | N#CN1CCC(=CC(=O)Nc2cnc3ccccc3c2)C1 [Example 23, 2-(1-Cyanopyrrolidin-3-ylidene)-N-(quinolin-3-yl)acetamide]
2 | 100 to 1000 | N#CN1CCC(CC(=O)Nc2nnc(-c3ccccc3)s2)C1 (stereo not drawn) [Example 41, 2-(1-cyanopyrrolidin-3-yl)-N-(5-phenyl-1,3,4-thiadiazol-2-yl)acetamide]
3 | 10 to 100 | COc1ccc(C2CN(C(=O)C[C@@H]3CCN(C#N)C3)C2)cc1-c1ccn[nH]1 [Example 39, (S)-3-(2-(3-(4-Methoxy-3-(1H-pyrazol-5-yl)phenyl)azetidin-1-yl)-2-oxoethyl)pyrrolidine-1-carbonitrile]
4 | 1000 to 10000 | N#CN1CCC(=CC(=O)Nc2ccc3ncsc3c2)C1 [Example 21, N-(Benzo[d]thiazol-6-yl)-2-(1-cyanopyrrolidin-3-ylidene)acetamide]
5 | 10 to 100 | COc1cccc(C2CN(C(=O)C[C@@H]3CCN(C#N)C3)C2)c1F [Example 68, (S)-3-(2-(3-(2-fluoro-3-methoxyphenyl)azetidin-1-yl)-2-oxoethyl)pyrrolidine-1-carbonitrile]
6 | 100 to 1000 | CN(C(=O)C=C1CCN(C#N)C1)c1nc2ccccc2s1 [Example 32, N-(Benzo[d]thiazol-2-yl)-2-(1-cyanopyrrolidin-3-ylidene)-N-methylacetamide]
7 | 100 to 1000 | N#CN1CC[C@H](CC(=O)Nc2cc(-c3ccc(Cl)cc3)no2)C1 [Example 35, (R)—N-(3-(4-Chlorophenyl)isoxazol-5-yl)-2-(1-cyanopyrrolidin-3-yl)acetamide]
8 | 1000 to 10000 | COCCOc1ccc(C2CN(C(=O)C[C@@H]3CCN(C#N)C3)C2)cc1 [Example 66, (S)-3-(2-(3-(4-(2-methoxyethoxy)phenyl)azetidin-1-yl)-2-oxoethyl)pyrrolidine-1-carbonitrile]
9 | 100 to 1000 | CC(C)Oc1ccc(C2CN(C(=O)C[C@@H]3CCN(C#N)C3)C2)nc1 [Example 65, (S)-3-(2-(3-(5-isopropoxypyridin-2-yl)azetidin-1-yl)-2-oxoethyl)pyrrolidine-1-carbonitrile]
10 | 1000 to 10000 | N#CN1CC[C@H](CC(=O)Nc2nnc(-c3ccccc3)s2)C1 [Example 63, (R)-2-(1-cyanopyrrolidin-3-yl)-N-(5-phenyl-1,3,4-thiadiazol-2-yl)acetamide]
11 | 100 to 1000 | CN(Cc1cccc(-c2ccncc2)c1)C(=O)C=C1CCN(C#N)C1 [Example 26, 2-(1-Cyanopyrrolidin-3-ylidene)-N-methyl-N-(3-(pyridin-4-yl)benzyl)acetamide]
12 | 100 to 1000 | N#CN1CC[C@@H](CC(=O)Nc2cc(-c3ccc(Cl)cc3)no2)C1 [Example 34, (S)—N-(3-(4-Chlorophenyl)isoxazol-5-yl)-2-(1-cyanopyrrolidin-3-yl)acetamide]
13 | 100 to 1000 | CN(C)C(=O)c1ccc(C2CN(C(=O)C[C@@H]3CCN(C#N)C3)C2)cc1 [Example 60, (S)-4-(1-(2-(1-cyanopyrrolidin-3-yl)acetyl)azetidin-3-yl)-N,N-dimethylbenzamide]
14 | 100 to 1000 | N#CN1CCC(CC(=O)N2CC(c3ccc(O)cc3)C2)C1 (stereo not drawn) [Example 58, 3-(2-(3-(4-hydroxyphenyl)azetidin-1-yl)-2-oxoethyl)pyrrolidine-1-carbonitrile]
15 | 10 to 100 | N#CN1CC[C@@H](CC(=O)Nc2cc(-c3cccc(Cl)c3)no2)C1 [Example 42, (S)-N-(3-(3-chlorophenyl)isoxazol-5-yl)-2-(1-cyanopyrrolidin-3-yl)acetamide]
16 | 100 to 1000 | CN(Cc1ccc(N2CCCC2)cc1)C(=O)C=C1CCN(C#N)C1 [Example 28, 2-(1-Cyanopyrrolidin-3-ylidene)-N-methyl-N-(4-(pyrrolidin-1-yl)benzyl)acetamide]
17 | 10 to 100 | COc1ccc(C2CN(C(=O)C[C@@H]3CCN(C#N)C3)C2)cc1-c1cnn(C)c1 [Example 67, (S)-3-(2-(3-(4-methoxy-3-(1-methyl-1H-pyrazol-4-yl)phenyl)azetidin-1-yl)-2-oxoethyl)pyrrolidine-1-carbonitrile]
18 | 1 to 10 | C[C@H](C(=O)Nc1cc(-c2cccc(Cl)c2)no1)[C@@H]1CCN(C#N)C1 [Example 50, (S)-N-(3-(3-chlorophenyl)isoxazol-5-yl)-2-((S)-1-cyanopyrrolidin-3-yl)propanamide]
19 | 100 to 1000 | N#Cc1cccc(-c2nnc(NC(=O)CC3CCN(C#N)C3)o2)c1 (stereo not drawn) [Example 49, N-(5-(3-cyanophenyl)-1,3,4-oxadiazol-2-yl)-2-(1-cyanopyrrolidin-3-yl)acetamide]
20 | 1000 to 10000 | N#CN1CCC(CC(=O)NCCc2ccccc2)C1 (stereo not drawn) [Example 11, 2-(1-Cyanopyrrolidin-3-yl)-N-phenethylacetamide]
21 | 100 to 1000 | N#CN1CCC(CC(=O)N2CC(Oc3ccccc3)C2)C1 (stereo not drawn) [Example 12, 3-(2-Oxo-2-(3-phenoxyazetidin-1-yl)ethyl)pyrrolidine-1-carbonitrile]

Row | IC50 [nM] | Structure (SMILES)
22 | 100 to 1000 | N#CN1CCC(CC(=O)Nc2cc(-c3ccccc3)no2)C1 (stereo not drawn) [Example 6, 2-(1-Cyanopyrrolidin-3-yl)-N-(3-phenylisoxazol-5-yl)acetamide]
23 | 100 to 1000 | Cc1ccc(NC(=O)C=C2CCN(C#N)C2)cc1Cl [Example 19, N-(3-Chloro-4-methylphenyl)-2-(1-cyanopyrrolidin-3-ylidene)acetamide]
24 | 10 to 100 | COc1cccc(-c2cc(NC(=O)C[C@H]3CCN(C#N)C3)on2)c1 [Example 43, (R)-2-(1-cyanopyrrolidin-3-yl)-N-(3-(3-methoxyphenyl)isoxazol-5-yl)acetamide]
25 | 100 to 1000 | COc1ccc(C2CN(C(=O)CC3CCN(C#N)C3)C2)cc1 (stereo not drawn) [Example 1, 3-(2-(3-(4-Methoxyphenyl)azetidin-1-yl)-2-oxoethyl)pyrrolidine-1-carbonitrile]
26 | 1000 to 10000 | N#CN1CCC(CC(=O)Nc2ccc(C(F)(F)F)nc2)C1 (stereo not drawn) [Example 4, 2-(1-Cyanopyrrolidin-3-yl)-N-(6-(trifluoromethyl)pyridin-3-yl)acetamide]
27 | 1000 to 10000 | Cc1cc(C2CN(C(=O)CC3CCN(C#N)C3)C2)ccn1 (stereo not drawn) [Example 15, 3-(2-(3-(2-Methylpyridin-4-yl)azetidin-1-yl)-2-oxoethyl)pyrrolidine-1-carbonitrile]
28 | 1000 to 10000 | N#Cc1ccc(NC(=O)CC2CCN(C#N)C2)nc1 (stereo not drawn) [Example 46, N-(5-cyanopyridin-2-yl)-2-(1-cyanopyrrolidin-3-yl)acetamide]
29 | 100 to 1000 | N#CN1CC[C@@H](CC(=O)Nc2nnc(-c3ccccc3)s2)C1 [Example 64, (S)-2-(1-cyanopyrrolidin-3-yl)-N-(5-phenyl-1,3,4-thiadiazol-2-yl)acetamide]
30 | 100 to 1000 | CN(Cc1cc(-c2ccccc2)on1)C(=O)C=C1CCN(C#N)C1 [Example 25, 2-(1-Cyanopyrrolidin-3-ylidene)-N-methyl-N-((5-phenylisoxazol-3-yl)methyl)acetamide]
31 | 10 to 100 | COc1ccc(C2CN(C(=O)C[C@@H]3CCN(C#N)C3)C2)cc1 [Example 38, (S)-3-(2-(3-(4-Methoxyphenyl)azetidin-1-yl)-2-oxoethyl)pyrrolidine-1-carbonitrile]
32 | 100 to 1000 | N#CN1CCC(CC(=O)Nc2ncc(-c3ccccc3)s2)C1 (stereo not drawn) [Example 10, 2-(1-Cyanopyrrolidin-3-yl)-N-(5-phenylthiazol-2-yl)acetamide]
33 | 1000 to 10000 | Cc1noc(C)c1-c1ccc2nc(NC(=O)CC3CCN(C#N)C3)cn2c1 (stereo not drawn) [Example 16, 2-(1-Cyanopyrrolidin-3-yl)-N-(6-(3,5-dimethylisoxazol-4-yl)imidazo[1,2-a]pyridin-2-yl)acetamide]
34 | 100 to 1000 | N#CN1CCC(CC(=O)Nc2nc3ccc(Cl)cc3s2)C1 (stereo not drawn) [Example 5, N-(6-Chlorobenzo[d]thiazol-2-yl)-2-(1-cyanopyrrolidin-3-yl)acetamide]
35 | 100 to 1000 | CN(Cc1ccc2ncccc2c1)C(=O)C=C1CCN(C#N)C1 [Example 24, 2-(1-Cyanopyrrolidin-3-ylidene)-N-methyl-N-(quinolin-6-ylmethyl)acetamide]
36 | 100 to 1000 | N#Cc1cccc(C2CN(C(=O)C[C@@H]3CCN(C#N)C3)C2)c1 [Example 56, (S)-3-(2-(3-(3-cyanophenyl)azetidin-1-yl)-2-oxoethyl)pyrrolidine-1-carbonitrile]
37 | 100 to 1000 | CN(Cc1ccc(Cl)c(Cl)c1)C(=O)C=C1CCN(C#N)C1 [Example 33, 2-(1-Cyanopyrrolidin-3-ylidene)-N-(3,4-dichlorobenzyl)-N-methylacetamide]
38 | 100 to 1000 | N#CN1CCC(CC(=O)Nc2nc3cc(Cl)ccc3o2)C1 (stereo not drawn) [Example 8, N-(5-Chlorobenzo[d]oxazol-2-yl)-2-(1-cyanopyrrolidin-3-yl)acetamide]
39 | 1 to 10 | N#CN1CC[C@H](CC(=O)Nc2cc(-c3cccc(Cl)c3)no2)C1 [Example 36, (R)—N-(3-(3-Chlorophenyl)isoxazol-5-yl)-2-(1-cyanopyrrolidin-3-yl)acetamide]
40 | 100 to 1000 | COc1ccc(C2CN(C(=O)C=C3CCN(C#N)C3)C2)cc1 [Example 17, 3-(2-(3-(4-Methoxyphenyl)azetidin-1-yl)-2-oxoethylidene)pyrrolidine-1-carbonitrile]
41 | 1 to 10 | N#Cc1cccc(-c2cc(NC(=O)C[C@H]3CCN(C#N)C3)no2)c1 [Example 55, (R)-N-(5-(3-cyanophenyl)isoxazol-3-yl)-2-(1-cyanopyrrolidin-3-yl)acetamide]
42 | 1 to 10 | N#Cc1cccc(-c2cc(NC(=O)C[C@H]3CCN(C#N)C3)on2)c1 [Example 51, (R)-N-(3-(3-cyanophenyl)isoxazol-5-yl)-2-(1-cyanopyrrolidin-3-yl)acetamide]
